Where two headings read alike, the source gives them in different places. Marks after values point to notes of the source that are not given here.
What was measured:
[1] = system: greenhouse red spider mite (Tetranychus urticae); assay: Tetranychus urticae spray test, OP-resistant (TETRUR), bean leaf disks; assay type: in vivo; settings: for pest or weed control at 500 g/ha: Tetranychus urticae, foliar, 144 h, read-out: efficacy (spider mites killed)
Experimental: (§1) After 6 days, the effect in % is determined.

[2] = system: cattle ticks (Boophilus microplus); assay: Boophilus microplus injection test (BOOPMI Inj); assay type: in vivo; settings: for pest or weed control at 0.02 mg: Rhipicephalus microplus, 168 h, read-out: efficacy (laying of fertile eggs)
Experimental: (§2) Solvent: dimethyl sulfoxide
1 μl of the active compound solution is injected into the abdomen of 5 engorged adult female cattle ticks (Boophilus microplus). The animals are transferred into dishes and kept in a climate-controlled room.
(§3) The activity is assessed after 7 days by laying of fertile eggs. Eggs whose fertility is not visible from the outside are stored in a climate-controlled cabinet until the larvae hatch after about 42 days. An efficacy of 100% means that none of the ticks has laid any fertile eggs; 0% means that all eggs are fertile.

[3] = system: Boophilus microplus; assay: Boophilus microplus test (BOOPMI injection); assay type: in vivo; parameters: dose or concentration left out as unconfirmed; settings: after 7 days
Experimental: as §2
The solution of active compound is injected into the abdomen (Boophilus microplus), and the animals are transferred into dishes and kept in a climatized room. The activity is assessed by laying of fertile eggs.
100% means that none of the ticks has laid any fertile eggs.

[4] = logP by HPLC on reversed-phase columns (C 18), EEC Directive 79/831 Annex V.A8; assay type: physicochemical; settings: for chromatographic logP: reversed-phase C18 HPLC column; for logP(HCOOH): pH 2.7; for logP(neutral): pH 7.8
Experimental: Calibration is carried out using unbranched alkan-2-ones (having from 3 to 16 carbon atoms) with known log P values (the log P values are determined by the retention times using linear interpolation between two successive alkanones).

[5] = system: larvae of the mustard beetle (Phaedon cochleariae); assay: Phaedon cochleariae spray test (PHAECO); settings: application rate 500 g/ha, after 7 days
[6] = system: larvae of the mustard beetle (Phaedon cochleariae); assay: Phaedon test (PHAECO spray treatment); settings: application rate 500 g/ha, after 7 days
[7] = system: Meloidogyne incognita; assay: Meloidogyne incognita test (MELGIN); assay type: in vivo; settings: application rate 20 ppm, after 14 days
Experimental: Solvents: 80.0 parts by weight of acetone
Containers are filled with sand, solution of active compound, Meloidogyne incognita egg/larvae suspension and lettuce seeds. The lettuce seeds germinate and the plants develop. On the roots, galls are formed.
After 14 days, the nematicidal efficacy in % is determined by the formation of galls. 100% means that no galls have been found; 0% means that the number of galls on the treated plants corresponds to the untreated control.

[8] = system: greenhouse red spider mite (Tetranychus urticae); assay: Tetranychus test, OP-resistant (TETRUR spray treatment); assay type: in vivo; settings: application rate 500 g/ha, after 6 days
Experimental: as §1

[9] = system: L1 larvae of the Australian sheep blowfly (Lucilia cuprina); assay: Lucilia cuprina test (LUCICU); assay type: in vivo; settings: application rate 100 ppm, after 2 days
Experimental: as §2
About 20 L1 larvae of the Australian sheep blowfly (Lucilia cuprina) are transferred into a test vessel containing minced horsemeat and the active compound preparation of the desired concentration.
After 2 days, the kill in % is determined.

[10] = system: Lucilia cuprina larvae; assay: Lucilia cuprina (48 h); assay type: in vivo; settings: application rate 100 ppm, after 48 hours
Experimental: as §2
10 mg of active compound are dissolved in 0.5 ml of dimethyl sulfoxide. To prepare a suitable formulation, the active compound solution is diluted with water to the concentration desired in each case. About 20 Lucilia cuprina larvae are introduced into a test tube which contains about 1 cm^3 of horse meat and 0.5 ml of the preparation of active compound to be tested. After 48 hours, the efficacy of the active compound preparation is determined as % larvae mortality.

[11] = system: green peach aphid (Myzus persicae); assay: Myzus persicae spray test (MYZUPE); assay type: in vivo; settings: application rate 500 g/ha, after 6 days
Experimental: as §1

[12] = system: cattle ticks (Boophilus microplus) Parkhurst strain, SP-resistant; assay: Boophilus microplus dip test (BOOPMI Dip); assay type: in vivo; settings: application rate 100 ppm, after 7 days
Experimental: Test animals: cattle ticks (Boophilus microplus) Parkhurst strain, SP-resistant
as §2
10 mg of active compound are dissolved in 0.5 ml of dimethyl sulfoxide. To prepare a suitable formulation, the active compound solution is diluted with water to the concentration desired in each case.
This active compound preparation is pipetted into tubes. 8-10 adult engorged female cattle ticks (Boophilus microplus) are transferred into a further tube with holes. The tube is immersed into the active compound formulation, and all ticks are completely wetted. After the liquid has run out, the ticks are transferred on filter disks into plastic dishes and stored in a climate-controlled room.
as §3

[13] = application rate 500 g/ha, after 6 days
[14] = application rate 20 μg/animal, injection, after 7 days
[15] = pH 2.7, [a] LC-MS, acidic range, pH 2.7, 0.1% aqueous formic acid/acetonitrile, read-out: logP(HCOOH)
[16] = pH 7.8, [b] LC-MS, neutral range, pH 7.8, 0.001 molar aqueous ammonium bicarbonate/acetonitrile, read-out: logP(neutral)

| SMILES | pest or weed control at 500 g/ha [1, 13] | pest or weed control at 0.02 mg [2, 14] | efficacy (laying of fertile eggs) [3] | efficacy (spider mites killed) [1, 13] | efficacy (laying of fertile eggs) [2, 14] | logP(HCOOH) [4] | logP(neutral) [4] | effect (aphids killed) [11] | other results |
| --- | --- | --- | --- | --- | --- | --- | --- | --- | --- |
| Cc1cc(F)c(/N=C(/N(C)C)C(F)(F)F)cc1SCC(F)(F)F [Ia-01, 2,2,2-Trifluoro-N′-{2-fluoro-4-methyl-5-[(2,2,2-trifluoroethyl)sulfanyl]phenyl}-N,N-dimethylethanimidamide] | 100% | 100% | 100% | – | – | – | – | – | chromatographic logP [4, 15]: 4.48; chromatographic logP [4, 16]: 4.5 |
| Cc1cc(F)c(N=C(NCc2ccccn2)C(F)(F)F)cc1SCC(F)(F)F [Ia-04] | – | – | 80% | 100% | 80% | 3.68^[a] | – | – | effect (beetle larvae killed) [5]: 100%; efficacy (beetle larvae killed) [6]: 100% |
| Cc1cc(C)c(SCC(F)(F)F)cc1N=C(N)C(F)(F)F [Ia-07] | – | – | – | 100% | – | 3.36 | 3.4 | – | nematicidal efficacy (formation of galls) [7]: 90%; efficacy (spider mites killed) [8]: 100% |
| CNC(=Nc1cc(SCC(F)(F)F)c(C)cc1F)C(F)(F)F [Ia-13] | – | – | – | 100% | 100% | 3.7 | 3.71 | – | effect (beetle larvae killed) [5]: 100%; efficacy (spider mites killed) [8]: 100%; efficacy (beetle larvae killed) [6]: 100%; efficacy (kill of larvae) [9]: 90% |
| CCNC(=Nc1cc(SCC(F)(F)F)c(C)cc1F)C(F)(F)F [Ia-18] | – | – | – | 100% | – | 4.12^[a]; 4.12^[b] | 4.12^[a]; 4.12^[b] | – | effect (beetle larvae killed) [5]: 100%; efficacy (spider mites killed) [8]: 100%; efficacy (beetle larvae killed) [6]: 100% |
| Cc1cc(F)c(N=C(N)C(F)(F)F)cc1SCC(F)(F)F [Ia-21] | – | – | 100% | 100% | 100% | – | 3.12^[b] | – | effect (% larvae mortality) [10]: 100%; efficacy (kill of larvae) [9]: 100% |
| Cc1cc(F)c(N=C(N)C(F)(F)C(F)(F)C(F)(F)C(F)(F)C(F)(F)C(F)F)cc1SCC(F)(F)F [Ia-22] | – | – | 100% | 100% | 100% | – | – | – | – |
| Cc1cc(C)c(SCC(F)(F)F)cc1/N=C(\N)C1(Cl)CC1 [Ia-34] | 100% | 100% | – | – | – | – | – | 90% | – |
| Cc1cc(F)c(/N=C(/N)c2ccc(F)cc2)cc1SCC(F)(F)F [Ia-116] | 100% | 100% | – | – | – | – | – | 90% | – |
| Cc1cc(F)c(/N=C2\CCCN2CC(F)(F)F)cc1SCC(F)(F)F [Ia-189, 2-fluoro-4-methyl-N-[1-(2,2,2-trifluoroethyl)pyrrolidin-2-ylidene]-5-[(2,2,2-trifluoroethyl)sulfanyl]aniline] | – | – | – | – | – | – | – | – | efficacy (laying of fertile eggs) [12]: 100%; pest or weed control at 500 g/ha [1]: 100%; pest or weed control at 0.02 mg [2]: 100%; chromatographic logP [4, 15]: 2.32; chromatographic logP [4, 16]: 4.37 |
| Cc1cc(F)c(/N=C(\NC(C)C(F)(F)F)C2CC2)cc1SCC(F)(F)F (stereo not shown) [Ia-206] | 100% | 100% | – | – | – | – | – | 100% | – |
| Cc1cc(F)c(/N=C(\NCC2CCCC(C(F)(F)F)C2)C2CC2)cc1SCC(F)(F)F (stereo not shown) [Ia-228] | 90% | – | – | – | – | – | – | 100% | – |

From US10051861B2, “N-arylamidine-substituted trifluoroethyl sulfide derivatives as acaricides and insecticides” (BAYER CROPSCIENCE AG, priority 2011, dated 2018)
